Data from PubChem BioAssay (NCI).
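Interpolation was linear, between the two tested concentrations surrounding the appropriate level; five concentrations were tested over 48 hours in 96-well plates. Abbreviation: GI50, concentration required for 50% inhibition of growth. TGI denotes the concentration required for complete inhibition of growth.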

Key:
Assay in all cases: NCI anticancer screen, dose series, 48 h
786-0 renal = test system: 786-0 renal
A498 renal = test system: A498 renal
A549 NSCLC = test system: A549 NSCLC
ACHN renal = test system: ACHN renal
BT-549 breast = test system: BT-549 breast
CAKI-1 renal = test system: CAKI-1 renal
CCRF-CEM leukemia = test system: CCRF-CEM leukemia
COLO 205 colon = test system: COLO 205 colon
DU-145 prostate = test system: DU-145 prostate
EKVX NSCLC = test system: EKVX NSCLC
HCT-116 colon = test system: HCT-116 colon
HCT-15 colon = test system: HCT-15 colon
HL-60(TB) leukemia = test system: HL-60(TB) leukemia
HOP-62 NSCLC = test system: HOP-62 NSCLC
HOP-92 NSCLC = test system: HOP-92 NSCLC
HS 578T breast = test system: HS 578T breast
HT29 colon = test system: HT29 colon
IGROV1 ovarian = test system: IGROV1 ovarian
K-562 leukemia = test system: K-562 leukemia
KM12 colon = test system: KM12 colon
LOX IMVI melanoma = test system: LOX IMVI melanoma
M14 melanoma = test system: M14 melanoma
MALME-3M melanoma = test system: MALME-3M melanoma
MCF7 breast = test system: MCF7 breast
MDA-MB-231 breast = test system: MDA-MB-231 breast
MDA-MB-435 = test system: MDA-MB-435
MDA-N = test system: MDA-N
MOLT-4 leukemia = test system: MOLT-4 leukemia
NCI-H226 lung = test system: NCI-H226 lung
NCI-H23 lung = test system: NCI-H23 lung
NCI-H522 lung = test system: NCI-H522 lung
NCI/ADR-RES ovarian = test system: NCI/ADR-RES ovarian
OVCAR-3 ovarian = test system: OVCAR-3 ovarian
OVCAR-4 ovarian = test system: OVCAR-4 ovarian
OVCAR-5 ovarian = test system: OVCAR-5 ovarian
OVCAR-8 ovarian = test system: OVCAR-8 ovarian
RPMI-8226 leukemia = test system: RPMI-8226 leukemia
RXF 393 renal = test system: RXF 393 renal
SF-268 CNS = test system: SF-268 CNS
SF-295 CNS = test system: SF-295 CNS
SK-MEL-2 melanoma = test system: SK-MEL-2 melanoma
SK-MEL-28 melanoma = test system: SK-MEL-28 melanoma
SK-MEL-5 melanoma = test system: SK-MEL-5 melanoma
SK-OV-3 ovarian = test system: SK-OV-3 ovarian
SN12C renal = test system: SN12C renal
SNB-19 CNS = test system: SNB-19 CNS
SNB-75 CNS = test system: SNB-75 CNS
SR leukemia = test system: SR leukemia
SW-620 colon = test system: SW-620 colon
T-47D breast = test system: T-47D breast
TK-10 renal = test system: TK-10 renal
U251 CNS = test system: U251 CNS
UACC-257 melanoma = test system: UACC-257 melanoma
UACC-62 melanoma = test system: UACC-62 melanoma
UO-31 renal = test system: UO-31 renal
HCC-2998 colon = test system: HCC-2998 colon
NCI-H460 lung = test system: NCI-H460 lung
PC-3 prostate = test system: PC-3 prostate
SF-539 CNS = test system: SF-539 CNS

CC(=O)c1ccc2c3c1[C@H]1O[C@H]1c1cccc(c1-3)[C@@H]1O[C@H]21
GI50 (786-0 renal): 1.74 µM | TGI (786-0 renal): 4 µM | GI50 (A498 renal): 2.74 µM | TGI (A498 renal): 7.36 µM | TGI (A549 NSCLC): 9.32 µM | TGI (ACHN renal): 3.79 µM | TGI (BT-549 breast): 4.53 µM | TGI (CAKI-1 renal): 2.67 µM | TGI (CCRF-CEM leukemia): 4.2 µM | TGI (COLO 205 colon): 3.59 µM | TGI (DU-145 prostate): 7.19 µM | TGI (EKVX NSCLC): 4.03 µM | TGI (HCT-116 colon): 3.87 µM | TGI (HCT-15 colon): 4.12 µM | TGI (HL-60(TB) leukemia): 5.75 µM | TGI (HOP-62 NSCLC): 8.83 µM | TGI (HOP-92 NSCLC): 3.69 µM | TGI (HS 578T breast): 4.95 µM | TGI (HT29 colon): 7.81 µM | TGI (IGROV1 ovarian): 0.294 µM | TGI (K-562 leukemia): > 35.2 µM | TGI (KM12 colon): 5.31 µM | TGI (LOX IMVI melanoma): 1.2 µM | TGI (M14 melanoma): 3.38 µM | TGI (MALME-3M melanoma): 3.07 µM | TGI (MCF7 breast): > 33.5 µM | TGI (MDA-MB-231 breast): 4.44 µM | TGI (MDA-MB-435): 4.54 µM | TGI (MDA-N): 5.86 µM | TGI (MOLT-4 leukemia): > 32.6 µM | TGI (NCI-H226 lung): > 88.3 µM | TGI (NCI-H23 lung): 3.42 µM | TGI (NCI-H522 lung): 1.1 µM | GI50 (NCI/ADR-RES ovarian): 2.3 µM | TGI (NCI/ADR-RES ovarian): 5.68 µM | TGI (OVCAR-3 ovarian): 12.1 µM | TGI (OVCAR-4 ovarian): 3.59 µM | TGI (OVCAR-5 ovarian): 3.68 µM | TGI (OVCAR-8 ovarian): 3.49 µM | TGI (RPMI-8226 leukemia): 8.35 µM | TGI (RXF 393 renal): 3.82 µM | TGI (SF-268 CNS): 3.86 µM | TGI (SF-295 CNS): 18 µM | GI50 (SK-MEL-2 melanoma): 3.79 µM | TGI (SK-MEL-2 melanoma): > 100 µM | TGI (SK-MEL-28 melanoma): 5.96 µM | TGI (SK-MEL-5 melanoma): 5.39 µM | TGI (SK-OV-3 ovarian): 16 µM | TGI (SN12C renal): 3.86 µM | TGI (SNB-19 CNS): 13.1 µM | TGI (SNB-75 CNS): 6.12 µM | TGI (SR leukemia): > 100 µM | TGI (SW-620 colon): 3.01 µM | TGI (T-47D breast): 6.55 µM | TGI (TK-10 renal): > 51.2 µM | TGI (U251 CNS): 4.3 µM | TGI (UACC-257 melanoma): 8.1 µM | TGI (UACC-62 melanoma): 4.15 µM | TGI (UO-31 renal): 3.41 µM

CN(/N=C/C=N/N(C)C1=NCCCN1)C1=NCCCN1
TGI (786-0 renal): > 100 µM | TGI (A549 NSCLC): > 100 µM | TGI (ACHN renal): > 100 µM | TGI (BT-549 breast): > 100 µM | TGI (CAKI-1 renal): > 100 µM | TGI (CCRF-CEM leukemia): > 100 µM | TGI (COLO 205 colon): > 100 µM | TGI (EKVX NSCLC): > 100 µM | TGI (HCC-2998 colon): > 100 µM | TGI (HCT-116 colon): > 100 µM | TGI (HCT-15 colon): > 100 µM | TGI (HOP-62 NSCLC): > 100 µM | TGI (HOP-92 NSCLC): > 100 µM | TGI (HS 578T breast): > 100 µM | TGI (HT29 colon): > 100 µM | TGI (IGROV1 ovarian): > 100 µM | TGI (K-562 leukemia): > 100 µM | TGI (KM12 colon): > 100 µM | TGI (LOX IMVI melanoma): > 100 µM | TGI (M14 melanoma): > 100 µM | TGI (MALME-3M melanoma): > 100 µM | TGI (MCF7 breast): > 100 µM | TGI (MDA-MB-231 breast): > 100 µM | TGI (MDA-MB-435): > 100 µM | TGI (MDA-N): > 100 µM | TGI (MOLT-4 leukemia): > 100 µM | TGI (NCI-H226 lung): > 100 µM | TGI (NCI-H23 lung): > 100 µM | TGI (NCI-H460 lung): > 100 µM | TGI (NCI-H522 lung): > 100 µM | TGI (NCI/ADR-RES ovarian): > 100 µM | TGI (OVCAR-3 ovarian): > 100 µM | TGI (OVCAR-4 ovarian): > 100 µM | TGI (OVCAR-5 ovarian): > 100 µM | TGI (OVCAR-8 ovarian): > 100 µM | TGI (PC-3 prostate): > 100 µM | TGI (RXF 393 renal): > 100 µM | TGI (SF-268 CNS): > 100 µM | TGI (SF-295 CNS): > 100 µM | TGI (SF-539 CNS): > 100 µM | TGI (SK-MEL-28 melanoma): > 100 µM | TGI (SK-MEL-5 melanoma): > 100 µM | TGI (SK-OV-3 ovarian): > 100 µM | TGI (SN12C renal): > 100 µM | TGI (SNB-19 CNS): > 100 µM | TGI (SNB-75 CNS): > 100 µM | TGI (SR leukemia): > 100 µM | TGI (SW-620 colon): > 100 µM | TGI (TK-10 renal): > 100 µM | TGI (U251 CNS): > 100 µM | TGI (UACC-257 melanoma): > 100 µM | TGI (UACC-62 melanoma): > 100 µM | TGI (UO-31 renal): > 100 µM
